Assay results taken from article PMC10666548, “Identification of the bacterial metabolite aerugine as potential trigger of human dopaminergic neurodegeneration” (Environment international, 2023).
Entries after “also recorded” stand apart in the source; their conditions may differ.

How the values were obtained:
[1] = test system: aerugine (10 μM) cytotoxicity in LUHMES cultures (d6); assay: Modulation of aerugine-induced neurodegeneration by mechanistic inhibitors; type: cell-based, human; conditions: 24 h; for prevention of aerugine-induced cell death (viability) / maximal prevention of aerugine neurotoxicity: inhibitor 15 min prior to 10 μM aerugine
Protocol: (§1) For toxicity assessment of mature LUHMES neurons, precursor cells were pre-differentiated for 2 days in cell culture flasks pre-coated as described above and differentiation medium. Then, 45′000 cells per well were seeded in differentiation medium into standard 96-well plates pre-coated as described above. They were incubated at 37 °C and 5% CO2 for 4 days before compound treatment. At this time, cells were >99% post-mitotic and had established an extensive neurite network ([Scholz et al., 2011]) The cell viability was assessed via the Calcein/Hoechst readout, the LDH assay and the resazurin reduction assay.
(§2) Neurite area (NA) and viability (V) were assessed as described previously ([Stiegler et al., 2011]). In brief, cells were stained with 1 μM calcein-AM and 1 μg/ml H-33342 for 30 min at 37 °C and 5% CO2. Image acquisition was performed using an Array-Scan VTI HCS Reader (Cellomics, PA, USA) equipped with a Hamamatsu ORCA-ER camera. 10 fields per well were imaged with 2 channels at 20x magnification (2×2 pixel binning). Excitation/emission wavelengths of 365 ± 50/535 ± 45 nm were used for Hoechst detection in channel 1 and 474 ± 40/535 ± 45 nm were used for calcein detection in channel 2.
Fig. 4. Modulation of aerugine-induced neurodegeneration by mechanistic inhibitors. LUHMES cultures (d6) were used under standard conditions to assess the cytotoxicity of aerugine (10 μM) in the presence of various agents known to interfere with cell death pathways. A Treatment scheme: the respective inhibitors were applied 15 min prior to aerugine treatment (10 μM), and the viability was determined by high-content imaging after 24 h. B Inhibitors were used at different concentrations, as indicated. The main biochemical activity of each agent is indicated in brackets. Data are means ± SEM of at least three biological replicates with 3 technical replicates each. DFP = deferiprone; DFO = deferoxamine; qVD = caspase inhibitor; RIPK = receptor-interacting serine/threonine-protein kinase. For statistical analysis, the lowest concentration of inhibitor that produced the maximal protective effect (red) was compared to the treatment with aerugine alone using a two-tailed t-test (*: p = 0.01). C Exemplary pictures of LUHMES cultures after 24 h treatment: negative control (=DMSO), positive control (=10 μM aerugine), DFP (=20 μM DFP + 10 μM aerugine) and qVD (=5 μM qVD + 10 μM aerugine). Arrows indicate cells with a broken cell membrane (calcein-negative) and condensed nuclei (small H-33342-positive area). Arrow heads indicate disintegrating neurites (chains of calcein-positive blebs).

[2] = test system: human dopaminergic neurons (LUHMES cells); assay: Cytotoxicity to mature (d6) LUHMES neurons, calcein-AM & H-33342 high content imaging; type: cell-based; conditions: d6 LUHMES; for cytotoxicity to DAergic neurons (viability): 24 h (24 h and 48 h for purified compounds)
Protocol: as §1, §2
Nuclei were identified in channel 1 depending on intensity, area, size and shape. Their outlines were expanded by 3.2 μm to define a virtual cell soma area (VCSA), which was bigger than the average cell soma to prevent false positive NAs. All calcein-positive pixels were defined as viable cellular structures (VCSs). The NA was automatically calculated by excluding the VCSAs from the VCSs. Furthermore all nuclei co-localizing with VCSs were defined as alive.

N[C@@H](Cc1ccc(O)c(I)c1)C(=O)O [3-iodo-tyrosine]
prevention of aerugine-induced cell death (viability) [1]: had no effect at all

O=C(O)C1CSC(c2ccccc2O)=N1 (stereo not shown) [DHAA, Dihydroaeruginoic acid, reference compound]
cytotoxicity to DAergic neurons (viability) [2]: all toxicity was lost

O=Cc1csc(-c2ccccc2O)n1 [IQS, aeruginealdehyde]
cytotoxicity to DAergic neurons (viability) [2]: about equipotent with aeruginol
concentration range killing DAergic neurons ([2]; within 24 h): 10 to 25 µM

OCc1csc(-c2ccccc2O)n1 [aeruginol]
cytotoxicity to DAergic neurons (viability) [2]: cytotoxic to DAergic neurons in a time- and concentration-dependent manner

N[C@@H](CS)C(=O)O [cysteine]
maximal prevention of aerugine neurotoxicity [1]: 60–90%

O=CC1CSC(c2ccccc2O)=N1 (stereo not shown) [dhIQS, dihydro-aeruginealdehyde]
cytotoxicity to DAergic neurons (viability) [2]: all toxicity was lost

O=c1c2ccccc2[se]n1-c1ccccc1 [ebselen]
maximal prevention of aerugine neurotoxicity [1]: 60–90%

CCOC(=O)c1ccc(NC2CCCCC2)c(N)c1 [ferrostatin]
maximal prevention of aerugine neurotoxicity [1]: 60–90%

CN1C(=O)C(Cc2c[nH]c3ccccc23)NC1=S (stereo not shown) [necrostatin-1]
prevention of aerugine-induced cell death (viability) [1]: only slightly attenuated cell death

CC(C)[C@H](NC(=O)c1ccc2ccccc2n1)C(=O)N[C@@H](CC(=O)O)C(=O)COc1c(F)cccc1F [qVD]
neurite structure in presence of inhibitor ([1]; 10 μM aerugine): damage to the neurites still occurred and lost
optimal concentrations for prevention of cell death ([1]; 10 μM aerugine): 2 to 4 µM
prevention of aerugine-induced cell death (viability) [1]: completely prevented; also recorded: prevented cell death
